{"source": "ChEMBL document CHEMBL1201862", "about": "“PubChem BioAssay data set” (2004)", "key": {"[1]": {"target": "T1, Ubiquitin-conjugating enzyme E2 N (Homo sapiens, UniProt P61088)", "T1 sequence (P61088 whole entry)": "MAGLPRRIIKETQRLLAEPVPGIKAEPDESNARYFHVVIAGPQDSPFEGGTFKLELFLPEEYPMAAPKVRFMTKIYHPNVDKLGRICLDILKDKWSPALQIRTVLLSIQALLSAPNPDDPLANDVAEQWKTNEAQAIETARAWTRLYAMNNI", "format": "functional"}, "Vero": {"test_system": "Vero", "test": "host cell cytotoxicity of antiviral hits, dose response, cytotoxicity control for West Nile virus antiviral project, secondary assay (AID 1650)", "format": "functional", "settings": "Chlorocebus sabaeus"}, "Estrogen receptor beta": {"target": "Estrogen receptor beta (Homo sapiens, UniProt Q92731)", "sequence (Q92731 whole entry)": "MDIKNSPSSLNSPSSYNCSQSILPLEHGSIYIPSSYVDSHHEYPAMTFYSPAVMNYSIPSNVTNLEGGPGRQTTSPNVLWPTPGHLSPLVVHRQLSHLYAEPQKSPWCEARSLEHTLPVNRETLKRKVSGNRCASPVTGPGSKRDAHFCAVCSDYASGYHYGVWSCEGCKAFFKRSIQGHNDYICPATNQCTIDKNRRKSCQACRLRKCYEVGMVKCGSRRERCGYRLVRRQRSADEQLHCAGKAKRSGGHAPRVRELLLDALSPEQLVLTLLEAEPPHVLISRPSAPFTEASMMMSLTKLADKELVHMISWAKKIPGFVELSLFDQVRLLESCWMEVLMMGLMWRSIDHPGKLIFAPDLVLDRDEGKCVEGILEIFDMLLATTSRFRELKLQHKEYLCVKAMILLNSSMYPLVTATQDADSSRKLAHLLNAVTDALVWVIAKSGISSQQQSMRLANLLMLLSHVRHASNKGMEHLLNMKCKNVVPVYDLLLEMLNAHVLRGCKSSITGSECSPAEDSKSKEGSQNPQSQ"}, "Estrogen receptor": {"target": "T2, Estrogen receptor (Homo sapiens, UniProt P03372)", "T2 sequence (P03372 whole entry)": "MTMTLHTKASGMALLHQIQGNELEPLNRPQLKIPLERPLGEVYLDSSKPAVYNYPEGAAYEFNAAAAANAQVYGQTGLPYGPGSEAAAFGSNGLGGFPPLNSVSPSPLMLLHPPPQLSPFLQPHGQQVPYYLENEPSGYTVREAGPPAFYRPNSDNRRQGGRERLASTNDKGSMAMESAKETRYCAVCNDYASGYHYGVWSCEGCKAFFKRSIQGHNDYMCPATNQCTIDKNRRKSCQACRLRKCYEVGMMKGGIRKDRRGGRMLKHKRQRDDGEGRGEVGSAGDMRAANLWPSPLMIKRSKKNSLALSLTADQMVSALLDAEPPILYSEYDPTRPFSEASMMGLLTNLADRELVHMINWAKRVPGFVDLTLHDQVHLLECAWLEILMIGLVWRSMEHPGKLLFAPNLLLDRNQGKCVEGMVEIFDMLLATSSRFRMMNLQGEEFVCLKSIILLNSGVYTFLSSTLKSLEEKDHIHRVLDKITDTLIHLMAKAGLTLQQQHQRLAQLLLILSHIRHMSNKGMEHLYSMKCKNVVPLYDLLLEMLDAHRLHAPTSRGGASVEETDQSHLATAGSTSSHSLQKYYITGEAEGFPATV"}, "[2]": {"target": "Polyadenylate-binding protein 1 (Homo sapiens, UniProt P11940)", "sequence (P11940 whole entry)": "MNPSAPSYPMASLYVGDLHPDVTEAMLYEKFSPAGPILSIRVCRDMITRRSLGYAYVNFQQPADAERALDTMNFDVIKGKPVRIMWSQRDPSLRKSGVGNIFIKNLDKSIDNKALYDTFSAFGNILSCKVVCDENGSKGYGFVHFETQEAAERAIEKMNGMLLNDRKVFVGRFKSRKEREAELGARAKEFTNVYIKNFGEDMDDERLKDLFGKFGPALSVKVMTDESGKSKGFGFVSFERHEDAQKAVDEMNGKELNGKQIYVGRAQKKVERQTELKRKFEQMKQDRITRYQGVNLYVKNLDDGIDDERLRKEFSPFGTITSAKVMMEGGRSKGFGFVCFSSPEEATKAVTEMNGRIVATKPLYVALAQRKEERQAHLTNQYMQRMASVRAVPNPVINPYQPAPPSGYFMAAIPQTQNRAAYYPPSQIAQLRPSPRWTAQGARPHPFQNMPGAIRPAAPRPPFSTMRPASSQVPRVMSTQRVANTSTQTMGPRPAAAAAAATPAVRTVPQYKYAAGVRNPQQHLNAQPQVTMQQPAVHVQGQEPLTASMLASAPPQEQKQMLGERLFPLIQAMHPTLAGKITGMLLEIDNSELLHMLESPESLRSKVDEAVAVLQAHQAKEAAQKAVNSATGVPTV", "test": "PABP poly(A) RNA binding inhibitors, primary screen, biochemical, fluorescence polarization, uHTS (AID 2014)"}, "[3]": {"target": "Eukaryotic translation initiation factor 4H (Homo sapiens, UniProt Q15056)", "test": "human eIF4H binding inhibitors, primary screen, translation initiation inhibitor project, biochemical, uHTS, fluorescence polarization (AID 2012)"}, "[4]": {"target": "T3, Epstein-Barr nuclear antigen 1 (Epstein-Barr virus (strain B95-8) (HHV-4) (Human herpesvirus 4), UniProt P03211)", "T3 sequence (P03211 whole entry)": "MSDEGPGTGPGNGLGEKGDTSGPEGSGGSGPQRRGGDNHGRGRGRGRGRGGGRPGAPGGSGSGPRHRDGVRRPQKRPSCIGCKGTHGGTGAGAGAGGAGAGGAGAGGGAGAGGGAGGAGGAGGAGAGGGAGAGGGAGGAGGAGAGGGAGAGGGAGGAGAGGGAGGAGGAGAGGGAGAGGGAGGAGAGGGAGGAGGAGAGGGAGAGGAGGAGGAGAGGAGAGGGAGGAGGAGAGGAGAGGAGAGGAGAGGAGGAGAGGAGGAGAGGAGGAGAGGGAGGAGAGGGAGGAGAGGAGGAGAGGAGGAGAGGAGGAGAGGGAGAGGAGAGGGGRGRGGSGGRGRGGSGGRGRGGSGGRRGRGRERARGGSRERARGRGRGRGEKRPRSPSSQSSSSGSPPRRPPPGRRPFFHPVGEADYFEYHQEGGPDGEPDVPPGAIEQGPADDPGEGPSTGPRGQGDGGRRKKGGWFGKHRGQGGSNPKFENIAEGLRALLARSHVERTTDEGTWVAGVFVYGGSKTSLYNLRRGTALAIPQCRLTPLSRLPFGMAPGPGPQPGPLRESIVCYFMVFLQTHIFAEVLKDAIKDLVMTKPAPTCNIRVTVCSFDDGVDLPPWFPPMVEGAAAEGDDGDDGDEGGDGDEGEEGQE", "test": "EBNA-1 inhibitors, dose response, biochemical, fluorescence polarization, 1536-well (AID 2381);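 note: fluorescence polarization of a Cy5 DNA probe bound by EBNA-1 protein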", "design": "species or system human gammaherpesvirus 4"}, "[5]": {"target": "T4, Lytic switch protein BZLF1 (Epstein-Barr virus (strain B95-8) (HHV-4) (Human herpesvirus 4), UniProt P03206)", "T4 sequence (P03206 whole entry)": "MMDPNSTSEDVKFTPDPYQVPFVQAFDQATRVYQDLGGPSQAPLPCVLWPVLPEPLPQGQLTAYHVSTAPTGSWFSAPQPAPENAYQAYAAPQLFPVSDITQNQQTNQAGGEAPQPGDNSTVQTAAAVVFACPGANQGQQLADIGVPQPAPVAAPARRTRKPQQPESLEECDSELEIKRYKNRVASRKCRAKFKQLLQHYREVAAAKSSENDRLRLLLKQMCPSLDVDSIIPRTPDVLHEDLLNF", "test": "EBV ZTA inhibitors, dose response, counter-screen for EBNA-1 inhibitor project, biochemical, fluorescence polarization, Epstein-Barr virus, 1536-well (AID 2377);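 note: fluorescence polarization of Cy5-labelled ZRE DNA probe bound by purified Zta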", "design": "species or system human gammaherpesvirus 4"}, "[6]": {"target": "T5, Heat shock factor protein 1 (Mus musculus, UniProt P38532)", "T5 sequence (P38532 whole entry)": "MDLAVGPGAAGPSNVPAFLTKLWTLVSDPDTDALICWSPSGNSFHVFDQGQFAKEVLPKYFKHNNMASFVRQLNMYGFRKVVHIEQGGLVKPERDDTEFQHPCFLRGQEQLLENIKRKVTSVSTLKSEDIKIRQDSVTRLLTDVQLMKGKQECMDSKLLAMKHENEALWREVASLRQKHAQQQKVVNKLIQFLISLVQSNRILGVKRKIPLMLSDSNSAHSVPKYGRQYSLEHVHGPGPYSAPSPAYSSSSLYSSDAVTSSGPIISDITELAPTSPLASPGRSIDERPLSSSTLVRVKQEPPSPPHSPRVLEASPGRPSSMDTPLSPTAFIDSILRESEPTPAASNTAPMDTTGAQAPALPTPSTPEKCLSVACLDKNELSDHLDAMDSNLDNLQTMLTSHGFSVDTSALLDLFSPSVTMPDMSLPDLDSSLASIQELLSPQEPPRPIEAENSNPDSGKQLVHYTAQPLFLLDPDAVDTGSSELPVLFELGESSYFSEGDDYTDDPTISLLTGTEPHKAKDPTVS", "test": "inhibition of MG132-induced HSE-luciferase signal, confirmation, cell-based, NIH3T3, luminescence, dose retest (AID 2382);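 note: NIH3T3 fibroblasts with HSF1-driven luciferase reporter stressed by proteasome inhibitor MG132; luminescence from HSF1-driven luciferase expression after 8 hours of MG132 stress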", "format": "functional"}, "[7]": {"test": "HepG2 cell cytotoxicity, dose response, cytotoxicity control, plate reader, cherry-pick, antagonist series (AID 743416)", "format": "functional, cell-based"}, "[8]": {"test": "A549 cell cytotoxicity, dose response, cytotoxicity control, plate reader, cherry-pick, antagonist series (AID 743412)", "format": "functional, cell-based"}, "[9]": {"test": "MC4R antagonists, dose response, counter-screen for LGR2 antagonist project, cell-based, plate reader, cherry pick (AID 743444);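 note: transfected HEK 293 cells stimulated with alpha-MSH peptide; potency of inhibitors of the alpha-MSH evoked signal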", "format": "functional"}, "[10]": {"test": "LGR2 antagonists, dose response, cell-based, HEK293, CRE-luciferase reporter, cherry pick, set 2 (AID 743343);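 note: transfected cells were stimulated with diluted bursicon conditioned medium after compound addition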", "format": "functional"}, "HT-1080": {"test_system": "HT-1080", "test": "cytotoxicity in HT1080 fibrosarcoma cells, cell-based, fluorescence readout (AID 620)", "format": "functional", "settings": "Homo sapiens"}, "[11]": {"target": "Luciferin 4-monooxygenase (Photinus pyralis, UniProt P08659)", "sequence (P08659 whole entry)": "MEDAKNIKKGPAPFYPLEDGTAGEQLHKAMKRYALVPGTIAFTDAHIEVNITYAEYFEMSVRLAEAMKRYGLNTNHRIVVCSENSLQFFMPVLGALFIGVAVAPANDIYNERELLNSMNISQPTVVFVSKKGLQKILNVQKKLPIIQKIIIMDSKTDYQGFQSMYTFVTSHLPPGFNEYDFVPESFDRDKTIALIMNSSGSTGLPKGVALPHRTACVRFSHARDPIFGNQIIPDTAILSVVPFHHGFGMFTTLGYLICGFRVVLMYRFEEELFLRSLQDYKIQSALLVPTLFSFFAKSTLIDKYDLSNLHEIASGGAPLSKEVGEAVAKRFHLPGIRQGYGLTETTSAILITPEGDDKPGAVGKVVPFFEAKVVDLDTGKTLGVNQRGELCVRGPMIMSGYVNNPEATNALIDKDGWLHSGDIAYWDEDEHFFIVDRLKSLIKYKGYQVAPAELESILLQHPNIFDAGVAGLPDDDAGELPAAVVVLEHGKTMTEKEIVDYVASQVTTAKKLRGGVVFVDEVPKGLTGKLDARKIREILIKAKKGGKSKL", "test": "Counter Screen for Luciferase-based Assay Positives. [Related pubchem assays: 620, 618, 411 ]"}, "[12]": {"target": "Melanin-concentrating hormone receptor 1 (Homo sapiens, UniProt Q99705)", "sequence (Q99705 whole entry)": "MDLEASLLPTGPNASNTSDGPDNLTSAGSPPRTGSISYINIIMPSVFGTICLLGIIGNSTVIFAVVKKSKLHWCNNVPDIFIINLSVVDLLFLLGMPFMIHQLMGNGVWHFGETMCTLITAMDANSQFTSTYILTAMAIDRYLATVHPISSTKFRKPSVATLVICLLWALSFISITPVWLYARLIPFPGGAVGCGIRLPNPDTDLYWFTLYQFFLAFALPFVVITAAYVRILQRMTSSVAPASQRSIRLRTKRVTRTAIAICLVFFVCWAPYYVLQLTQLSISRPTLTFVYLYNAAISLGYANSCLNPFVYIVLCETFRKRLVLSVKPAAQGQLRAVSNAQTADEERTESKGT", "test": "Late-stage fluorescence-based counterscreen for antagonists of the G-protein coupled receptor 7 (GPR7): cell-based dose response assay to identify antagonists of the melanin-concentrating hormone receptor 1 (MCHR1). [Related pubchem assays (depositor defined):AID1861, AID1880, AID1952, AID2148, AID2251, AID2257, AID485339]", "format": "functional"}}, "note": "Calls of active or inactive are those of the source.", "data": [{"compound": "CC1CC(C)CN(CCCNC(=O)C2CCN(c3ncnc4c3sc3cccc(F)c34)CC2)C1", "note": "(stereo unspecified)", "values": [{"measurement": "IC50", "setting": "[1]", "value": "> 20 µM (inactive)"}, {"measurement": "CC50", "setting": "Vero", "value": "> 100 µM (active)"}]}, {"compound": "Cn1c(=O)[nH]c(=O)c2c1nc1n2CCCN1CCc1ccccc1", "values": [{"measurement": "IC50", "setting": "Estrogen receptor beta", "value": "> 50 µM (not active)"}, {"measurement": "IC50", "setting": "Estrogen receptor", "value": "> 50 µM (not active)"}]}, {"compound": "Cc1ccccc1SCC(=O)N1CCN(c2ccc(C(F)(F)F)cn2)CC1", "values": [{"measurement": "IC50", "setting": "[2]", "value": "> 100 µM (inactive)"}, {"measurement": "IC50", "setting": "[3]", "value": "> 100 µM (inactive)"}]}, {"compound": "CCN=c1ccc(Br)cc(C(=O)/C=C/c2ccccc2Cl)c1O", "values": [{"measurement": "IC50", "setting": "Estrogen receptor", "value": "3.11 µM (active)"}]}, {"compound": "Cc1ccc(C(=O)OCC(=O)NC2CCCCC2)o1", "values": [{"measurement": "IC50", "setting": "[2]", "value": "63 µM (active)"}, {"measurement": "IC50", "setting": "[3]", "value": "51 µM (active)"}]}, {"compound": "COc1ccc(Cl)cc1NC(=O)CN1CCN(S(=O)(=O)c2ccc(F)cc2)CC1", "values": [{"measurement": "IC50", "setting": "[4]", "value": "16.4 µM (not active)"}, {"measurement": "IC50", "setting": "[5]", "value": "> 111 µM (not active)"}]}, {"compound": "Cc1oc(-c2ccc3c(c2)OCCO3)cc1C(=O)O", "values": [{"measurement": "EC50", "setting": "[6]", "value": "0.312 µM (active)"}, {"measurement": "AC50", "setting": "[7]", "value": "> 52 µM (inactive)"}, {"measurement": "AC50", "setting": "[8]", "value": "> 52 µM (inactive)"}, {"measurement": "AC50", "setting": "[9]", "value": "7.49 µM (active)"}, {"measurement": "AC50", "setting": "[10]", "value": "7.05 µM (active)"}, {"measurement": "EC50", "setting": "HT-1080", "value": "> 50 µM (not active)"}, {"measurement": "EC50", "setting": "[11]", "value": "1.25 µM (active)"}]}, {"compound": "CC(C)c1ccc(-n2ncc(Cl)c(Oc3ccc(OC(F)(F)F)cc3)c2=O)cc1", "values": [{"measurement": "IC50", "setting": "[12]", "value": "12 µM (inactive)"}]}, {"compound": "C/C(=N\\NC(=O)c1c(Br)cnn1C)c1ccc(NC(=O)c2ccc(F)cc2)cc1", "values": [{"measurement": "IC50", "setting": "[4]", "value": "3.62 µM (active)"}, {"measurement": "IC50", "setting": "[5]", "value": "> 111 µM (not active)"}]}]}
